Data on ten compounds can be found in ChEMBL document CHEMBL1201862, “PubChem BioAssay data set” (2004).

Among the test systems are 786-0; EKVX; HCC 2998; HOP-62; IGROV-1; M14; MDA-MB-231; MDA-MB-435; NCI-H460; NCI/ADR-RES; OVCAR-3; OVCAR-4; OVCAR-5; PC-3; RPMI-8226; SF-268; SF-539; SNB-19; SNB-75; UO-31.
Common to all, as to assay: growth of human tumour cells (NCI), 48 h

The structures appear in SMILES notation.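 Dose response: 5 concentrations. Exposure: 48 h. Format: 96-well plates. Endpoint: linear interpolation; highest concentration if not reached. The concentration for 50% growth inhibition is given as GI50.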 Activity calls are given as the source filed them. No stated cut-off is given here; in the data, active = GI50 up to about 1.1 µM and inactive = higher. Where a SMILES comes first, the peptide text is derived from it. The star is where a group is joined. Boc = CC(C)(C)OC(=O)*; nBu = CCCC*

Consider `CCOC(=O)C(CC(C)C)NC(=O)C(Cc1ccc(N(CCCl)CCCl)cc1)NC(C)=O` (stereo not drawn), for which the GI50 is 2.02 µM (inactive) in the experiment on 786-0; 11.1 µM (inactive) in the experiment on EKVX; 13.2 µM (inactive) in the experiment on HCC 2998; 3.01 µM (inactive) with HOP-62; 11.2 µM (inactive) in the experiment on IGROV-1; 2.7 µM (inactive) in the experiment on M14. In addition, the GI50 in the experiment on MDA-MB-231 was 5.86 µM (inactive); with MDA-MB-435, 3.41 µM (inactive); in the experiment with NCI-H460, 2.75 µM (inactive); in the experiment on NCI/ADR-RES it was 18.1 µM (inactive); in the experiment with OVCAR-3, 4.56 µM (inactive); with OVCAR-4, 8.89 µM (inactive). The GI50 in the experiment on OVCAR-5 was 12.7 µM (inactive); with PC-3 it was 15.8 µM (inactive); with RPMI-8226 it was 2.82 µM (inactive); in the experiment on SF-268, 4.07 µM (inactive); with SF-539 it was 2.18 µM (inactive); in the experiment with SNB-19 it was 14 µM (inactive). In addition, the GI50 was 5.96 µM (inactive) in the experiment on SNB-75 and 8.02 µM (inactive) in the experiment with UO-31.

`COc1ccc(CCn2cnc3ccccc32)cc1`: the GI50 in the experiment with 786-0, with EKVX, in the experiment on HCC 2998, in the experiment with HOP-62, in the experiment on IGROV-1 and in the experiment on M14 was > 100 µM (inactive) throughout. Further, the GI50 in the experiment on MDA-MB-231, in the experiment on MDA-MB-435, in the experiment on NCI-H460, with NCI/ADR-RES, in the experiment on OVCAR-3 and in the experiment with OVCAR-4 was > 100 µM (inactive) in each case. Further, the GI50 in the experiment with OVCAR-5, in the experiment on PC-3, in the experiment on RPMI-8226, in the experiment with SF-268, in the experiment on SF-539 and with SNB-19 was > 100 µM (inactive) in each case. The GI50 with SNB-75 and in the experiment on UO-31 was > 100 µM (inactive) throughout.

Regarding `Clc1ccc(C(Cc2ccccc2)c2c(Cl)nc(N3CCNCC3)nc2Cl)cc1` (stereo not drawn), the GI50 with 786-0 is 16.5 µM (inactive); in the experiment with EKVX, 17.9 µM (inactive); in the experiment on HCC 2998 it was 6.3 µM (inactive); with HOP-62, 15.7 µM (inactive); in the experiment with IGROV-1, 11.9 µM (inactive); in the experiment with M14, 16.2 µM (inactive). In addition, the GI50 in the experiment on MDA-MB-231 was 12.8 µM (inactive); in the experiment with MDA-MB-435, 16.6 µM (inactive); in the experiment with NCI-H460, 12.1 µM (inactive); in the experiment on NCI/ADR-RES, 15.8 µM (inactive); in the experiment with OVCAR-3 it was 14.3 µM (inactive); with OVCAR-4 it was 18.6 µM (inactive). Besides, the GI50 is 17.7 µM (inactive) in the experiment with OVCAR-5; 14.3 µM (inactive) in the experiment with PC-3; 13.7 µM (inactive) with RPMI-8226; 14.5 µM (inactive) in the experiment with SF-539; 15.3 µM (inactive) in the experiment on SNB-19; 14.1 µM (inactive) with SNB-75. In addition, the GI50 with UO-31 was 11.3 µM (inactive).

Regarding `CN(Cc1cnc2nc(N)nc(N)c2n1)c1ccc(C(=O)NC(CCC(=O)O)C(=O)O)cc1` (stereo not drawn), the GI50 was 41.5 µM (inactive) in the experiment on HCC 2998; 0.082 µM (active) with IGROV-1; 0.117 µM (active) in the experiment with M14; > 100 µM (inactive) in the experiment on MDA-MB-231; < 0.01 µM (active) in the experiment on MDA-MB-435; < 0.01 µM (active) in the experiment on NCI-H460. The GI50 with NCI/ADR-RES was 0.0249 µM (active); in the experiment with OVCAR-3, 0.111 µM (active); with OVCAR-4, > 70.8 µM (inactive); in the experiment on OVCAR-5, > 100 µM (inactive); in the experiment with PC-3 it was 3.81 µM (inactive); in the experiment on RPMI-8226 it was < 0.0284 µM (active). The GI50 is < 0.0298 µM (active) in the experiment with SF-268; < 0.014 µM (active) in the experiment on SF-539; 0.619 µM (active) with SNB-19; > 57 µM (inactive) with SNB-75; 0.232 µM (active) in the experiment with UO-31.

On to `NC(=O)C(=O)c1ncn(Cc2ccccc2)c1N`, for which the GI50 in the experiment on 786-0, with EKVX, in the experiment on HCC 2998, in the experiment on HOP-62, in the experiment on IGROV-1 and in the experiment with M14 was > 100 µM (inactive) each time. For the same compound, the GI50 with MDA-MB-231, with MDA-MB-435, in the experiment with NCI-H460, with NCI/ADR-RES, with OVCAR-3 and with OVCAR-4 was > 100 µM (inactive) throughout. Moreover, the GI50 in the experiment on OVCAR-5, in the experiment with PC-3, in the experiment with RPMI-8226, in the experiment on SF-268, in the experiment with SF-539 and with SNB-19 was > 100 µM (inactive) throughout. The GI50 in the experiment on SNB-75 was > 100 µM (inactive).

For the compound `COC1C(O)C(C)OC(O[C@@H]2C[C@H]3CC[C@@H]4[C@H](CC[C@]5(C)[C@@H](C6=CC(=O)OC6)CC[C@]45O)[C@@]3(C)[C@H](O)C2)C1O` (stereo partly drawn), the GI50 was 0.149 µM (active) with 786-0; < 0.0474 µM (active) with EKVX; 0.719 µM (active) in the experiment on HCC 2998; 0.0333 µM (active) in the experiment on HOP-62; 0.145 µM (active) with IGROV-1; 0.0741 µM (active) with M14. Further, the GI50 with MDA-MB-231 is 0.313 µM (active); with MDA-MB-435, 0.0883 µM (active); with NCI-H460, 0.0347 µM (active); in the experiment with NCI/ADR-RES, < 0.0443 µM (active); with OVCAR-3 it was < 0.0258 µM (active); in the experiment on OVCAR-4, 0.057 µM (active). In addition, the GI50 in the experiment on OVCAR-5 was 0.114 µM (active); with PC-3 it was 0.0755 µM (active); in the experiment with RPMI-8226, 0.0512 µM (active); in the experiment with SF-268, < 0.0272 µM (active); in the experiment on SF-539 it was < 0.01 µM (active); in the experiment with SNB-19, 0.264 µM (active). The GI50 in the experiment on SNB-75 is 0.126 µM (active).

As for `Cc1ccc(SCC(CF)OC(C)n2cnc3c(O)nc(N)nc32)cc1` (stereo not drawn), the GI50 in the experiment with 786-0, in the experiment with HCC 2998, in the experiment on HOP-62, in the experiment with IGROV-1, with M14 and in the experiment on MDA-MB-231 was > 100 µM (inactive) in each case. The GI50 in the experiment on MDA-MB-435 was 63.8 µM (inactive); in the experiment on NCI-H460 it was > 100 µM (inactive); with NCI/ADR-RES, > 100 µM (inactive); with OVCAR-3, 88.7 µM (inactive); in the experiment with OVCAR-4, > 100 µM (inactive); in the experiment with OVCAR-5 it was > 100 µM (inactive). The GI50 in the experiment with PC-3, with RPMI-8226, in the experiment on SF-268, in the experiment on SF-539, with SNB-19 and in the experiment on SNB-75 was > 100 µM (inactive) throughout. Moreover, in the experiment with UO-31, the GI50 was > 100 µM (inactive).

As to `CC(=O)On1c(-c2ccccc2-c2nc3ccccc3n2OC(C)=O)nc2ccccc21`, the GI50 in the experiment with 786-0 is 46.6 µM (inactive); with EKVX, > 10 µM (inactive); in the experiment with HCC 2998 it was 33.4 µM (inactive); in the experiment on HOP-62, 97.9 µM (inactive); with IGROV-1, 22.1 µM (inactive); in the experiment on M14, 33.8 µM (inactive). Further, the GI50 is 42.8 µM (inactive) in the experiment with MDA-MB-231; 16.2 µM (inactive) with MDA-MB-435; 79.3 µM (inactive) in the experiment on NCI/ADR-RES; 24.3 µM (inactive) in the experiment with OVCAR-3; > 100 µM (inactive) with OVCAR-5; 4.43 µM (inactive) in the experiment with PC-3. In addition, the GI50 with RPMI-8226 is 7.82 µM (inactive); in the experiment with SF-268 it was 23 µM (inactive); in the experiment on SF-539, 42.7 µM (inactive); in the experiment on SNB-19, 60.5 µM (inactive); in the experiment on SNB-75 it was 35.2 µM (inactive); with UO-31, 74.6 µM (inactive).

As for `CCCCOc1ccc(CC(NC(=O)OC(C)(C)C)C(=O)NC(C)C(=O)NC(Cc2ccccc2)C(=O)NCC(N)=O)cc1` (stereo not drawn) (Boc-Y(nBu)AFG-NH2; configuration not given here), the GI50 with 786-0 is > 100 µM (inactive); in the experiment on HCC 2998, > 100 µM (inactive); in the experiment with HOP-62, > 100 µM (inactive); in the experiment on IGROV-1 it was 31.3 µM (inactive); with M14, > 100 µM (inactive); with MDA-MB-231 it was 82.4 µM (inactive). For the same compound, the GI50 in the experiment with MDA-MB-435, in the experiment on NCI-H460, with NCI/ADR-RES, in the experiment with OVCAR-3, in the experiment on OVCAR-4 and in the experiment on OVCAR-5 was > 100 µM (inactive) in each case. The GI50 with PC-3 was > 100 µM (inactive); in the experiment on RPMI-8226 it was 32.6 µM (inactive); with SF-268 it was > 100 µM (inactive); with SF-539, > 100 µM (inactive); in the experiment on SNB-19, > 100 µM (inactive); in the experiment with SNB-75 it was > 100 µM (inactive). The GI50 in the experiment on UO-31 is > 100 µM (inactive).

For the compound `O=c1[nH]nc(Cc2ccccc2)n1/N=C/c1ccc([N+](=O)[O-])cc1`, the GI50 in the experiment on 786-0, with EKVX, in the experiment on HCC 2998, in the experiment on HOP-62, with IGROV-1 and in the experiment with MDA-MB-231 was > 100 µM (inactive) each time. Besides, the GI50 in the experiment on MDA-MB-435, with NCI-H460, in the experiment on NCI/ADR-RES, in the experiment with OVCAR-3, with OVCAR-4 and in the experiment on OVCAR-5 was > 100 µM (inactive) in each case. The GI50 is > 100 µM (inactive) in the experiment on PC-3; > 10 µM (inactive) in the experiment on RPMI-8226; > 100 µM (inactive) with SF-268; > 100 µM (inactive) in the experiment with SF-539; 42 µM (inactive) in the experiment with SNB-75; > 100 µM (inactive) in the experiment on UO-31.
